{"source": "patent US10822367B2", "about": "“Pharmaceutical composition for preventing or treating dementia and improving cognitive function, comprising glasswort extract” (priority 2017, dated 2020)", "key": {"[1]": {"target": "acetylcholine esterase (AChE) (Homo sapiens, UniProt P22303)", "sequence (P22303 32-614)": "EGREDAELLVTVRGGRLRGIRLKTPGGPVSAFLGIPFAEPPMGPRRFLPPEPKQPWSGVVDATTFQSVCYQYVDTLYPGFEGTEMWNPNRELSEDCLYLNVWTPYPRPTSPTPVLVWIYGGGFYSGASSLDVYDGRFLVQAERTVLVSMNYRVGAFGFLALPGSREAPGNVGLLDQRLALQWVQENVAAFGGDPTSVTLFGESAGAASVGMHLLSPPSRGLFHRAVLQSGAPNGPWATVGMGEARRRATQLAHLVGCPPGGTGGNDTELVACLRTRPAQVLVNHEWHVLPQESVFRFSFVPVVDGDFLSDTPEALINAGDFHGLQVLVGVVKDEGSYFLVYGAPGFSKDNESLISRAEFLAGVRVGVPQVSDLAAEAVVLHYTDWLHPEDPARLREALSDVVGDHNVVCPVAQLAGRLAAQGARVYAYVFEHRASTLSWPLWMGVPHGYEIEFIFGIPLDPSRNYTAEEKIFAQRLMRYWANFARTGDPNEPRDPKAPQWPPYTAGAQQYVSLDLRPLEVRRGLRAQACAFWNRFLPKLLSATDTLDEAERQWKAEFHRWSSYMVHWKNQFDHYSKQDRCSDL", "experiment": "Acetylcholine esterase inhibitory activity (partially corrected Ellman's coupled enzyme assay)", "format": "biochemical", "description": "It has been reported that as the concentration of acetylcholine esterase (AChE) increases in the cerebral blood vessels, cholinergic neurotransmitters for neurons are deficient in neurons, causing memory and cognitive impairment. Therefore, the measurement of AChE inhibitory activity can be used as a tool for the development of a drug or health functional raw material for prevention and treatment of dementia or enhancement of cognitive ability. In the present invention, the AChE inhibitory activity of a desalted Salicornia europaea extract, a desalted Salicornia europaea enzymatic hydrolysis extract, or purified fractions obtained from a desalted Salicornia europaea extract were measured, and the measurement was conducted by partially correcting Ellman's coupled enzyme assay. That is, 170 μL of 100 mM phosphate buffer (pH 8), […] of 2 mM dithiobisnitrobenzoic acid (DTNB), and 20 μL of an extraction sample were added to on a 96-well microplate. […] The enzymatic reaction solution was incubated at 37° C. for 10 minutes, and then the absorbance was measured by a UV-VIS microreader at 410 nm. The AChE inhibitory activity was calculated as below by comparison between the absorbance (Ac) of a control group not containing a substrate and a sample and the absorbance (As) of a test group. *AChE inhibitory activity (%)=[1−(As/Ac)]×100 • Ac: absorbance of a control group, • As: absorbance of a sample group."}, "[2]": {"test_system": "LPS-stimulated mouse BV-2 microglia", "experiment": "LPS-induced nitric oxide (NO) production, NO assay using Griess reagent", "format": "cell-based", "details": "1, 5, 100 μg/mL as printed; LPS 200 ng/ml (FIG. 10b)", "experimental": "(§1) A test was conducted to investigate effects of the neuroinflammation inducing substance LPS (200 mg/mL) and the active ingredient acanthoside B of PM-EE on brain glia cells in LPS-stimulated brain glia cells BV2 microglia. The cells were treated with each material at different concentrations (1, 5, 10 μg/mL), and a cytotoxicity test was conducted through MTT analysis. […] Therefore, in order to analyze the neuroinflammation inhibitory ability of acanthoside B at concentrations (1, 5, 100 μg/mL) without cytotoxicity, as for whether the nitric oxide (NO) produced in LPS (200 ng/ml)-stimulated mouse BV-2 microglia was inhibited by acanthoside B, the content of intracellular LPS-induced nitric oxide (NO) was measured through NO assay using Griess reagent."}, "[3]": {"test_system": "iNOS and COX-2 protein in LPS-stimulated BV2 microglia", "experiment": "Neuroinflammation factor protein expression by western blotting", "format": "cell-based, mouse", "details": "acanthoside B; LPS-induced (FIG. 10c)", "experimental": "as §1"}, "[4]": {"test_system": "neuroinflammation-related genes (IL-1β, iNOS, COX-2, and TNF-α) in BV2 microglia", "experiment": "Neuroinflammation gene expression by RT-PCR", "format": "cell-based, mouse", "method": "BV2 microglia as neuroglia were treated with LPS and the desalted Salicornia europaea extract (PM-EE) at different concentrations (0-100 μg/mL). After 1 hour, cells were stimulated by LPS, and after 3 hours, an RNA sample was isolated by an RNA extraction buffer. Thereafter, RT-PCR assay was conducted through RNA purification procedure. […] RNA isolated from BV2 microglia was subjected to denaturation at 95° C. for […], 45 times of chain reactions in conditions of 95° C. for 5 seconds and 60° C. for 20 seconds, and annealing to 95° C. at 0.2° C./15 sec, using the primers in Table 4, and then the reaction was stopped. Last, separation by bp size was conducted through agarose gel electrophoresis. Then, bands were checked under UV, and fluorescence was imaged by a camera. As shown in the results in FIG. 9, the expressions of neuroinflammation-related genes (IL-1β, iNOS, COX-2, and TNF-α) were not or slightly observed in a control group treated without LPS.\nA test was conducted to investigate an effect of acanthoside B on neuroinflammation factor gene expression. […] After 3 hours, RNA sample was separated by RNA extraction buffer to synthesize cDNA, and RT-PCR was conducted by the same method as in example 6 using the primers in Table 4. […]"}, "[5]": {"test_system": "forgetfulness animal models using scopolamine", "experiment": "Passive avoidance test", "format": "in vivo, mice", "method": "Mice were placed in the bright section with shining light and allowed to go over for 20 seconds. Subsequently, the guillotine door was opened and the mouse was allowed to enter into the dark section. […] The time from when the guillotine door was opened to when the mouse entered the dark section was measured. Once the mouse entered the dark section, the guillotine door was closed, and an electric shock of 0.25 mA flows through a grid bottom for 3 seconds, and the mouse remembered this electrical action. The present test was conducted 24 hours after the learning test. […] Here, the longer the time taken, the better the cognitive ability and memory in passive avoidance."}, "[6]": {"test_system": "forgetfulness animal models using scopolamine", "experiment": "Y-maze test", "format": "in vivo", "method": "A test was conducted to investigate the improvement efficacy of cognitive ability and memory of the desalted Salicornia europaea extract (PM-EE) obtained in example 4-1 above and acanthoside B as an AChE inhibitory and neuroinflammation inhibiting substance isolated from PM-EE in examples 4-2 and 4-3. The Y-maze test was conducted in forgetfulness animal models using scopolamine. In the present test, PM-EE and acanthoside B were dissolved in 10% Tween 80, and then the mixture was orally administered at different concentrations (PM-EE and acanthoside B). […] For the Y-maze test, a test animal was carefully placed in a test apparatus composed of three arms (A, B, C) of a black polyvinyl plastic, each of the arms being 50 cm in length, 10 cm in width, and 20 cm in height, and the folding angle of the three arms being 120 degrees, and the test animal was allowed to freely move for 8 minutes, and then the number of arm entries was recorded. If the test animal sequentially entered the three different arms, 1 point (actual alternation) was given. The alternation behavior was calculated by the following formula. Alternation behavior=(actual alternation)/(maximum alternation)×100 (maximum alternation: the total number of arm entries−2)"}, "[7]": {"experiment": "Solubility (physical and chemical properties)", "format": "physicochemical", "description": "As a result of the measurement above, the compound S7-L3-3 was identified to be acanthoside B ((2S,3R,4S,5S,6R)-2-[4-[(3S,3aR,6S,6aR)-3-(4-hydroxy-3,5-dimethoxyphenyl)-1,3,3a,4,6,6a-hexahydrofuro [3,4-c]furan-6-yl]-2,6-dimethoxyphenoxy]-6-(hydroxymethyl)oxane-3,4,5-triol) having a molecular weight of 580, which has not been reported in Salicornia europaea until now, and the physical and chemical properties thereof are as follows."}, "BV2 microglia": {"test_system": "BV2 microglia", "experiment": "Cytotoxicity test through MTT assay in LPS-stimulated BV2 microglia", "details": "acanthoside B 1, 5, 10 μg/mL, alone or together with LPS (FIG. 10a)", "experimental": "as §1"}}, "note": "pIC50: −log10 of the molar value."}
{"smiles": "COc1cc([C@H]2OC[C@@H]3[C@@H]2CO[C@H]3c2cc(OC)c(O[C@@H]3O[C@H](CO)[C@@H](O)[C@H](O)[C@H]3O)c(OC)c2)cc(OC)c1O[C@@H]1O[C@H](CO)[C@@H](O)[C@H](O)[C@H]1O", "note": "[Elutheroside E, eleutheroside E, reference compound]", "values": [{"measurement": "IC50 (AChE inhibitory activity)", "setting": "[1]", "value": "8.2 ± 0.37", "unit": "µg/mL"}]}
{"smiles": "COc1cc([C@H]2OC[C@H]3[C@@H]2CO[C@@H]3c2cc(OC)c(O[C@@H]3O[C@H](CO)[C@@H](O)[C@H](O)[C@H]3O)c(OC)c2)cc(OC)c1O", "note": "[acanthoside B, (2S,3R,4S,5S,6R)-2-[4-[(3S,3aR,6S,6aR)-3-(4-hydroxy-3,5-dimethoxyphenyl)-1,3,3a,4,6,6a-hexahydrofuro [3,4-c]furan-6-yl]-2,6-dimethoxyphenoxy]-6-(hydroxymethyl)oxane-3,4,5-triol]", "values": [{"measurement": "pIC50", "setting": "[1]; IC50 (AChE inhibitory activity)", "value": 5.32}, {"measurement": "inhibition at 10 µg/mL", "setting": "[1]; read-out: AChE inhibitory activity", "value": 93.2, "unit": "%"}, {"measurement": "LPS-induced amplified intracellular nitric oxide (NO)", "setting": "[2]", "value": "remarkably decreased dependently on the treatment concentration"}, {"measurement": "Expressions of iNOS and COX-2 protein (western blotting)", "setting": "[3]", "value": "remarkably inhibited"}, {"measurement": "LPS-induced amplified neuroinflammation-related genes (IL-1β, iNOS, COX-2, TNF-α) at high concentration", "setting": "[4]; 10 μg/mL (FIG. 11)", "value": "restored to almost the same level as that of a control group before LPS induction"}, {"measurement": "mRNA expression pattern of IL-1β, iNOS, COX-2, and TNF-α (RT-PCR)", "setting": "[4]; 1, 5, 10 μg/mL, LPS-stimulated (FIG. 11)", "value": "reduced dose-dependently"}, {"measurement": "Cognitive ability and memory improvement compared with galantamine (passive avoidance)", "setting": "[5]; administration at high concentrations", "value": "more superior cognitive ability and memory improvement effects compared with the dementia drug, galantamine"}, {"measurement": "Transfer latency time (TLT: retention time)", "setting": "[5]; scopolamine 1 mg/kg intraperitoneally, different concentrations of sample (FIG. 12a, 12b)", "value": "significantly increased"}, {"measurement": "Cognitive ability and memory improvement compared with galantamine (Y-maze)", "setting": "[6]; galantamine 10 mg/kg as positive control", "value": "superior cognitive ability and memory improvement effects to galantamine"}, {"measurement": "Alternation behavior (spatial cognitive ability)", "setting": "[6]; orally administered at different concentrations in 10% Tween 80, scopolamine model (FIG. 13a, 13b)", "value": "restored dose-dependently"}, {"measurement": "Solubility", "setting": "[7]", "value": "soluble in methanol, ethanol, ethyl acetate, ethyl acetate, chloroform, or pyridine"}, {"measurement": "Cell viability (MTT)", "setting": "BV2 microglia", "value": "not significantly changed"}]}
{"smiles": "CN1[C@@H]2C[C@@H](OC(=O)[C@H](CO)c3ccccc3)C[C@H]1[C@@H]1O[C@@H]12", "note": "[scopolamine, reference compound]", "values": [{"measurement": "Alternation behavior after administration of scopolamine", "setting": "[6]; normal control group scored 50 points", "value": 45.5, "unit": "points"}]}
